{"source": "patent US10137106B2", "about": "“Compositions and methods to treat niemann-pick disease” (Blanchette Rockefeller Neurosciences Institute, Inc., priority 2014, dated 2018)", "assay_type_in_all_cases": "cell-based", "key": {"PKC ε [1]": {"target": "T1, PKC ε (Homo sapiens, UniProt Q02156)", "T1 sequence (Q02156 1-737)": "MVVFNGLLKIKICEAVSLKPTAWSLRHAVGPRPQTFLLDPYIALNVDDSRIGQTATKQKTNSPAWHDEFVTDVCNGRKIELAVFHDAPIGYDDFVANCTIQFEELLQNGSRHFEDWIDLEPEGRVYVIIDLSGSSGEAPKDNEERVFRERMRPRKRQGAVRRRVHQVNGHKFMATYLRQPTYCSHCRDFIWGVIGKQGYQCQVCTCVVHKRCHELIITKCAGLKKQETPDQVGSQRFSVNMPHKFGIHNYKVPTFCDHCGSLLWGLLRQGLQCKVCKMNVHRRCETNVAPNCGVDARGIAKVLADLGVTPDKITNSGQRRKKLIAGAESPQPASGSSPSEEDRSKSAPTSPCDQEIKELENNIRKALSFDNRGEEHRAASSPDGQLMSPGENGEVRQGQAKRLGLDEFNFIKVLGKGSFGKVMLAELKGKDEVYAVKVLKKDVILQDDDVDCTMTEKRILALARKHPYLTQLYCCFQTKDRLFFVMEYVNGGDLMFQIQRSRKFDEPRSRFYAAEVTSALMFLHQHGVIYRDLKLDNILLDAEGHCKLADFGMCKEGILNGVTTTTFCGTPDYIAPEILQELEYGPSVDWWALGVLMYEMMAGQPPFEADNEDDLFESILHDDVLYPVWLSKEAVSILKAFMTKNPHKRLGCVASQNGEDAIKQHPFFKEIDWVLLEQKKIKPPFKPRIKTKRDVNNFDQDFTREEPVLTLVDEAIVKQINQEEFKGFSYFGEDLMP", "experiment": "PKC ε activation (membrane translocation, immunoblot) in primary human neurons", "design": "host or cells: primary human cortical neurons", "description": "PKC isozyme activation by bryostatin-1 at various concentrations in primary human neurons was evaluated. One month old primary human neurons were treated with 0 nM, 0.060 nM, 0.125 nM, 0.25 nM, 0.5 nM and 1.0 nM bryostatin 1 for 24 hr. Neurons were separated into soluble and membrane fractions and immunoblotted against PKC α and PKC ε. PKC activation was measured as the percentage of total protein in the membrane and reported as percentage of control. PKC staining levels were measured densitometrically. Data are represented as mean±SE of three independent experiments (Students t-test, *P<0.05 and **P<0.005).\nPKC isozyme activation by bryostatin-1 at 0.25 nM in primary human neurons was evaluated. One month old primary human neurons were treated with ethanol (C), bryostatin 1 (0.25 nM) for 1 hr, 4 hr and 24 hr. Neurons were separated into soluble (S) and membrane (P) fractions and immunoblotted against PKC α, PKC ε and PKC δ. PKC activation was measured as the percentage of total protein in the membrane and reported as percentage of control. PKC staining levels were measured densitometrically.\nCulture of primary human cortical neurons: Human primary neurons (ScienCell Research Laboratories, Carlsbad, Calif., USA) were plated on poly-L-lysine coated plates and were maintained in neuronal medium (ScienCell Research Laboratories, Carlsbad, Calif., USA) supplemented with the neuronal growth supplement (NGS, ScienCell Research Laboratories, Carlsbad, Calif., USA). For maintenance of neurons, half of the media was changed every 3 days. Fresh activators were added with every media change.\n(§1) Cell lysis and Western blot analysis: Cells were harvested in homogenizing buffer (HB) containing 10 mM Tris-Cl (pH 7.4), 1 mM PMSF (phenylmethylsulfonylfluoride), 1 mM EGTA, 1 mM EDTA, 50 mM NaF and 20 μM leupeptin, and were lysed by sonication. The homogenate was centrifuged at 100,000×g for 15 min at 4° C. to obtain the cytosolic fraction (supernatant) and membrane (pellet). The pellet was resuspended in the HB by sonication. Protein concentration was measured using the Coomassie Plus (Bradford) Protein Assay kit (Pierce, Rockford, Ill., USA). Following quantification, 20 μg of protein from each sample was subjected to SDS-PAGE analysis in a 4-20% gradient Tris-Glycine polyacrylamide gel (Invitrogen, Carlsbad, Calif., USA). The separated protein was then transferred to a nitrocellulose membrane. The membrane was blocked with BSA and incubated with primary antibody overnight at 4° C. […] The blot was imaged in a ImageQuant RT-ECL (GE Life Sciences, Piscataway, N.J.) and densitometric quantification was performed using IMAL software. For quantifying expression of a protein, the densitometric value for the protein of interest was normalized against beta-actin (loading control)."}, "PKC α [2]": {"target": "T2, PKC α (Homo sapiens, UniProt P17252)", "experiment": "PKC α activation (membrane translocation, immunoblot) in primary human neurons", "design": "host or cells: primary human cortical neurons", "description": "(§2) The homogenate was centrifuged at 100,000×g for 15 min at 4° C. to obtain the cytosolic fraction (supernatant) and membrane (pellet). […] The separated protein was then transferred to a nitrocellulose membrane."}, "PKC ε [3]": {"target": "T1, PKC ε", "experiment": "PKC ε activation in SH-SY5Y cells (cytosol/membrane fractions, isoform-specific antibodies)", "conditions": "0.27 nM, 5-60 min (FIG. 3)", "description": "PKC isozyme activation by bryostatin-1 at 0.27 nM in SH-SY5Y cells was evaluated. SH-SY5Y cells are human-derived cell line and are often used as in vitro models of neuronal function and differentiation. Cells were treated with bryostatin-1 (0.27 nM) for 0, 5, 15, 30 and 60 min. Samples were fractionated into cytosol and membrane fractions and analyzed with PKC isoform-specific antibodies. Three independent experiments were performed for each sample.\nCell culture and treatments: Human SH-SY5Y neuroblastoma cells (ATCC) were cultured in 45% F12K, 45% DMEM and 10% FBS.\nas §1, with “The pellet was resuspended in the HB by sonication.” left out, “USA).” for “USA). The separated protein was then transferred to a nitrocellulose membrane. The membrane was blocked with BSA and incubated with primary antibody overnight at 4° C.”, “For quantifying expression of a protein, the densitometric value for the protein of interest was normalized against beta-actin (loading control).” left out"}, "PKC α [4]": {"target": "T2, PKC α", "experiment": "PKC α activation in SH-SY5Y cells (cytosol/membrane fractions, isoform-specific antibodies)", "conditions": "0.27 nM, 5-60 min (FIG. 3)", "description": "Three independent experiments were performed for each sample.\nas §2"}}}
{"smiles": "CCC/C=C/C=C/C(=O)O[C@H]1/C(=C/C(=O)OC)C[C@H]2C[C@H]([C@@H](C)O)OC(=O)C[C@H](O)C[C@@H]3C[C@H](OC(C)=O)C(C)(C)[C@](O)(C[C@@H]4C/C(=C/C(=O)OC)C[C@H](/C=C/C(C)(C)[C@]1(O)O2)O4)O3", "note": "[bryostatin-1]", "values": [{"measurement": "PKC-ε activation, time course", "setting": "PKC ε [1]; 0.25 nM, 1 hr, 4 hr and 24 hr (FIG. 2B)", "result": "induced PKC-ε activation"}, {"measurement": "PKC ε activation (percentage of total protein in the membrane, percentage of control)", "setting": "PKC ε [1]; 0.060-1.0 nM, 24 hr (FIG. 1)", "result": "activated both PKC ε and PKC α"}, {"measurement": "PKC ε activation at about 1 nM", "setting": "PKC ε [1]; about 1 nM, 24 hr", "result": "potent activation of both PKC ε and PKC α"}, {"measurement": "PKC ε activation at low concentrations", "setting": "PKC ε [1]; low concentrations, 24 hr", "result": "potent PKC ε activation"}, {"measurement": "PKC α activation (percentage of total protein in the membrane, percentage of control)", "setting": "PKC α [2]; 0.060-1.0 nM, 24 hr (FIG. 1)", "result": "activated both PKC ε and PKC α"}, {"measurement": "PKC α activation at about 1 nM", "setting": "PKC α [2]; about 1 nM, 24 hr", "result": "potent activation of both PKC ε and PKC α"}, {"measurement": "PKC ε activation", "setting": "PKC ε [3]", "result": "activated both PKC ε and PKC α"}, {"measurement": "PKC α activation", "setting": "PKC α [4]", "result": "activated both PKC ε and PKC α"}]}
